Test results as given in patent US10487313B2, “Efficient induction of definitive endoderm from pluripotent stem cells” (Novo Nordisk A/S, priority 2011, dated 2019).

What was measured:
[1] = test system: SA121 hES and chIPS4 iPS cells; test: Quantitative real-time PCR of PS and DE markers (Brachyury, SOX17) during DE induction; assay type: cell-based, human; conditions: for Brachyury (PS) response timing compared to CHIR treatment: Wnt3a (200 ng/ml) or BIO (0.5 μM) 24 h instead of CHIR, upregulated D2
Method: Human embryonic stem (hES) cells SA121 and chIPS4 (Cellartis) were grown on human fibronectin (Sigma) in DEF culture media (Cellartis) with 30 ng/ml bFGF (Invitrogen) and 10 ng/ml Noggin (Peprotech) in 6-96 well plates. Cells were single cell passaged with Rock inhibitor Y-27632 (Calbiochem) and seeded at a density of 40000 cells/cm2 for experiments. Experiments were initiated 4 d after passage.
Confluent cultures were washed once in RPMI1640 (Invitrogen) before 24 hour pre-treatment with 0,5-7μM CHIR99021 (Stemgent) in RPMI. Control cells were left untreated in RPMI and D'Amour cells were either left in RPMI or treated with AA (Peprotech)+Wnt3a (R&D Systems) without pre-treatment depending on experimental setup.
After 24 hours, pretreated and control cells were washed once with RPMI before adding 100 ng/ml AA in RPMI. D'Amour cells were also treated with 100 ng/ml AA but with 0,2% FBS instead of B27. 24 h later, 2% B27 (Invitrogen) was added to the AA media for 2-3 d. Control cells were treated with B27 to prevent cell death and D'Amour cells with 2% FBS according to published protocol. Media was changed every day.
RNA samples were collected after 24 h pre-treatment (D1), after 1 day of AA treatment (D2) and after 1-2 d of AA+B27 treatment (D3-4). Total RNA was extracted with the Rneasy Plus Mini kit (Qiagen) and quantitative real-time PCR was performed using the StepOnePLus system (Applied Biosystems).
Undifferentiated SA121 hES and chIPS4 iPS cells in DEF media (DO) were cultured either in RPMI without CHIR (Ctrl D1) or treated for 24 h with CHIR in RPMI (CHIR D1). The cells were then washed to ensure absence of CHIR and then both conditions were treated with 1 d AA (Ctrl and CHIR d2). […] T fold inductions after 24 h CHIR treatment spanned between 500-100000 compared to undifferentiated cells (d0). T protein levels were also confirmed with ICC (FIG. 2C).
The efficiency levels for both T and SOX17 were highly robust (n>60) and confirmed with IHC and SOX17 quantifications (FIG. 2C and Table 2.). […] SOX17 expression peaked already after one day of AA treatment when cells were subjected to CHIR for 24 h before AA induction.
(§1) hES SA121 and ChIPS4 cells were treated with either CHIR (3 μM), BIO (0.5 μM), Wnt3a (200 ng/ml) or AA alone (100 ng/ml) for 24 h prior to AA addition to show CHIR specificity (d1). Additionally, D'Amour (protocol as described in Kroon et al 2008) was tested in parallel.
Chir was titrated at concentrations between 1-7 uM and analyzed after 24 h Chir treatment (D1) and after 2 d of following AA treatment (D3).

[2] = test system: hES SA121 cells; test: CHIR specificity: cell survival after 24 h pre-treatment prior to AA addition; assay type: cell-based, human; conditions: 24 h pre-treatment with BIO (0.5 μM) or AA alone (100 ng/ml), then AA
Method: as §1
The data clearly illustrated that PS transition (upregulation of Brachyury) and DE induction (upregulation of SOX17) were both accelerated and much higher after CHIR treatment compared to pretreatment with growth factors such as AA and Wnt3a.

Molecule | Brachyury (PS) response timing compared to CHIR treatment [1] | cell survival until day 3 [2] | time of SOX17 induction peak after AA ([1]; CHIR-priming step 24 h then AA, versus AA alone) [days]
O=C1Nc2cc(Br)ccc2/C1=C1/Nc2ccccc2/C1=N\O [BIO] | delayed | did not survive until day 3 | 
AA: Activin A, growth factor used for definitive endoderm induction |  | did not survive until day 3 | 3 to 4
Wnt3a: the Wnt receptor ligand Wnt3a (protein, UniProt P56704 19-352, looked up) Protein Wnt-3a: SYPIWWSLAVGPQYSSLGSQPILCASIPGLVPKQLRFCRNYVEIMPSVAEGIKIGIQECQHQFRGRRWNCTTVHDSLAIFGPVLDKATRESAFVHAIASAGVAFAVTRSCAEGTAAICGCSSRHQGSPGKGWKWGGCSEDIEFGGMVSREFADARENRPDARSAMNRHNNEAGRQAIASHMHLKCKCHGLSGSCEVKTCWWSQPDFRAIGDFLKDKYDSASEMVVEKHRESRGWVETLRPRYTYFKVPTERDLVYYEASPNFCEPNPETGSFGTRDRTCNVSSHGIDGCDLLCCGRGHNARAERRREKCRCVFHWCCYVSCQECTRVYDVHTCK | delayed |  | 
